In test [1] the target is T1, Thyrotropin-releasing hormone receptor (Mus musculus, UniProt P21761).
T1 sequence (P21761 whole entry): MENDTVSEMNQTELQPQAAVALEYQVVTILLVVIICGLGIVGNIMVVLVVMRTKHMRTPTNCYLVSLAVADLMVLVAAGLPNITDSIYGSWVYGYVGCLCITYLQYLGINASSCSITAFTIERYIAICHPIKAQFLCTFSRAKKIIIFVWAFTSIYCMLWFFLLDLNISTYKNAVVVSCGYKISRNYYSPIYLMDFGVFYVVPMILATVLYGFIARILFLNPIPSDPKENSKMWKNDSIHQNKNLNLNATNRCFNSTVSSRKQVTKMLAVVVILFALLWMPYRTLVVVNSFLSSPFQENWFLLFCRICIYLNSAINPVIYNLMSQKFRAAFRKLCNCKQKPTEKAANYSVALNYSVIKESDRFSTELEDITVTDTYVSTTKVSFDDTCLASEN
The test is described as follows: Ability to bind thyroliberin endocrine receptor (TRH-R) using AtT-20 mouse pituitary tumor cells.

Test [2] addresses T1, Thyrotropin-releasing hormone receptor. The test is described as follows: Ability to activate thyroliberin endocrine receptor (TRH-R) using AtT-20 mouse pituitary tumor cells prelabelled with myo-[3H] inositol.

Non-standard residues stand in square brackets, D forms with d. Residues, ends and D or L forms follow the SMILES beside them. Cha = N[C@@H](CC1CCCCC1)C(=O)O; pGlu = O=C1CC[C@@H](C(=O)O)N1

With `NC(=O)[C@@H]1CCCN1C(=O)[C@H](CC1CCCCC1)NC(=O)[C@@H]1CCC(=O)N1` ([pGlu]-[Cha]-Pro-NH2), the inhibition constant (Ki) in test [1] was 6500 nM. Further, in test [2], the response was half-maximal at 430 nM (EC50).
The corresponding values for `NC(=O)[C@@H]1CCC2CC(C3CCCCC3)=C(N3CC[C@]4(CCC(=O)N4)C3=O)C(=O)N21` (single isomer, unassigned; 2a) are 1500 nM and 1800 nM.
The corresponding values for `NC(=O)[C@@H]1CCC2CC(C3CCCCC3)=C(N3CC[C@]4(CCC(=O)N4)C3=O)C(=O)N21` (single isomer, unassigned; 2b) are 36000 nM and 18000 nM.
In test [1], `NC(=O)[C@@H]1CCCN1C(=O)[C@H](Cc1cnc[nH]1)NC(=O)[C@@H]1CCC(=O)N1` [PROTIRELIN] registered a Ki of 23 nM. This compound also registered an EC50 in test [2] of 0.49 nM.

These data come from ChEMBL document CHEMBL1130656, “Thyrotropin releasing hormone analogs: a building block approach to the construction of tetracyclic peptidomimetics” (Bioorg Med Chem Lett, 1998).
